# Results: ChEMBL document CHEMBL1134896, “Antileishmanial dinitroaniline sulfonamides with activity against parasite tubulin” (Bioorg Med Chem Lett, 2002)
# Experiments:
# Leishmania donovani [1] = test: Inhibitory activity against Leishmania donovani amastigotes; format: functional, organism-based
# Leishmania donovani [2] = test: Inhibitory activity against Leishmania donovani promastigotes; format: functional, organism-based
# Leishmania sp. = test: Percentage inhibition against Leishmania tubulin in vitro was determined at 20 uM; format: functional
SMILES,IC50 (Leishmania donovani [1]) [µM],IC50 (Leishmania donovani [2]) [µM],inhibition at 20 µM (Leishmania sp.) [%]
CCCCCN(CCCCC)c1c([N+](=O)[O-])cc(S(N)(=O)=O)cc1[N+](=O)[O-],9,8.02,95
CCCN(CCC)c1c([N+](=O)[O-])cc(C#N)cc1[N+](=O)[O-],,> 100,25
NS(=O)(=O)c1cc([N+](=O)[O-])c(N2CCOCC2)c([N+](=O)[O-])c1,,> 100,21
CCCNc1c([N+](=O)[O-])cc(S(N)(=O)=O)cc1[N+](=O)[O-],,67,43
CCN(CC)c1c([N+](=O)[O-])cc(S(N)(=O)=O)cc1[N+](=O)[O-],,69.3,58
CCCCCCN(CCCCCC)c1c([N+](=O)[O-])cc(S(N)(=O)=O)cc1[N+](=O)[O-],11.7,12.2,48
NS(=O)(=O)c1cc([N+](=O)[O-])c(N2CCCC2)c([N+](=O)[O-])c1,,97.1,57
CCCNS(=O)(=O)c1cc([N+](=O)[O-])c(N(CCC)CCC)c([N+](=O)[O-])c1,56.9,56,97
N=C(N)c1ccc(OCCCCCOc2ccc(C(=N)N)cc2)cc1 [PENTAMIDINE],2,1.61,
CCCN(CCC)c1c([N+](=O)[O-])cc(C(=N)NO)cc1[N+](=O)[O-],,> 100,35
CCCN(CCC)c1c([N+](=O)[O-])cc(S(=O)(=O)Nc2ccccc2)cc1[N+](=O)[O-],5.41,14.7,108
CCCN(CCC)c1c([N+](=O)[O-])cc(S(N)(=O)=O)cc1[N+](=O)[O-] [ORYZALIN],72.5,44.1,54
CCCN(CCC)c1ccc(S(N)(=O)=O)cc1[N+](=O)[O-],,89.8,19
CCCCN(CCCC)c1c([N+](=O)[O-])cc(S(N)(=O)=O)cc1[N+](=O)[O-],20.1,17.8,89
CCCN(CCC)c1c([N+](=O)[O-])cc(C(N)=O)cc1[N+](=O)[O-],,76.4,34
